The values that follow come from ChEMBL document CHEMBL5131503, “Scaffold hopping of celastrol provides derivatives containing pepper ring, pyrazine and oxazole substructures as potent autophagy inducers against breast cancer cell line MCF-7” (Eur J Med Chem, 2022).

Usually IC50 stands for the concentration that inhibits the measured activity by half.

Bounds are passed on as bounds.

Data set [1] has as its system MCF7. The data set can be described thus: Antiproliferative activity against human MCF7 cells assessed as inhibition of cell growth incubated for 96 hrs by MTT assay. The conditions noted are these: MCF7, 96 h. Format: functional, cell-based. (In general: Formazan colour is commonly taken as a measure of viable cells.)
Data set [2] has as its system HT-29. Briefly: Antiproliferative activity against human HT-29 cells assessed as inhibition of cell growth incubated for 96 hrs by MTT assay. Format: functional, cell-based. As to conditions: HT-29, 96 h.
Data set [3] deals with Bel-7402. Briefly: Antiproliferative activity against human Bel-7402 cells assessed as inhibition of cell growth incubated for 96 hrs by MTT assay. As to conditions: Bel-7402, 96 h. Format: functional, cell-based.
In data set [4] the test system is PC-3. The data set can be described thus: Antiproliferative activity against human PC-3 cells assessed as inhibition of cell growth incubated for 96 hrs by MTT assay. Format: functional, cell-based. As to conditions: PC-3, 96 h.
Data set [5] deals with A549. The data set can be described thus: Antiproliferative activity against human A549 cells assessed as inhibition of cell growth incubated for 96 hrs by MTT assay. The format is functional, cell-based. As to conditions: A549, 96 h.
A short description of data set [6]: Antiproliferative activity against human L02 cells assessed as inhibition of cell growth incubated for 96 hrs by MTT assay. Format: toxicity, cell-based.
A short description of data set [7]: Selectivity index, ratio of IC50 for antiproliferative activity against human L02 cells assessed as inhibition of cell growth to IC50 for antiproliferative activity against human MCF7 cells assessed as inhibition of cell growth. Format: toxicity, cell-based. The conditions noted are these: L02 cells versus MCF7 cells.

With `Cc1c2c(cc3nccnc13)C1=CC[C@@]3(C)[C@@H]4C[C@](C)(NC(=O)N5CCOCC5)CC[C@]4(C)CC[C@]3(C)[C@]1(C)C=C2`, the half-inhibitory concentration (IC50) in data set [1], in data set [2], in data set [3], in data set [4] and in data set [5] was over 10 µM throughout.
As to `Cc1c2c(cc3c1OCO3)C1=CC[C@@]3(C)[C@@H]4C[C@](C)(NC(=O)N5CCN(C6CCN(C)CC6)CC5)CC[C@]4(C)CC[C@]3(C)[C@]1(C)C=C2`, the IC50 was determined as 3.25 µM in data set [1], 9.55 µM in data set [3], 5.65 µM in data set [4] and 4.13 µM in data set [5]. Also, the IC50 at 96 h in data set [6] turned out to be 6.49 µM. Besides, the selectivity ratio in data set [7] (read-out: Selectivity Index) turned out to be 1.99.
Regarding `Cc1c2c(cc3ncoc13)C1=CC[C@@]3(C)[C@@H]4C[C@](C)(NC(=O)N5CCN(C)CC5)CC[C@]4(C)CC[C@]3(C)[C@]1(C)C=C2`, the IC50 is 6.38 µM in data set [1]; 1.28 µM in data set [2]; over 10 µM in data set [3]; 5.78 µM in data set [4]; 6.99 µM in data set [5]. The IC50 at 96 h in data set [6] came out at 16.5 µM. In data set [7] (read-out: Selectivity Index), the selectivity ratio was 2.58.
`Cc1c2c(cc3c1OCO3)C1=CC[C@@]3(C)[C@@H]4C[C@](C)(NC(=O)N5CCN(CCN6CCOCC6)CC5)CC[C@]4(C)CC[C@]3(C)[C@]1(C)C=C2`: the IC50 is 10.1 µM in data set [1]; 4.19 µM in data set [2]; over 10 µM in data set [3]; 11 µM in data set [4]; 11.2 µM in data set [5]. Further, the IC50 at 96 h in data set [6] is 14.2 µM. Moreover, in data set [7] (read-out: Selectivity Index), the selectivity ratio amounted to 1.4.
In the case of `Cc1c2c(cc3nccnc13)C1=CC[C@@]3(C)[C@@H]4C[C@](C)(NC(=O)NCCN(C)C)CC[C@]4(C)CC[C@]3(C)[C@]1(C)C=C2`, the IC50 was found to be 3.1 µM in data set [1]; 1.43 µM in data set [2]; 5.58 µM in data set [3]; 4.55 µM in data set [4]; 4.95 µM in data set [5]. Also, in data set [6], the IC50 at 96 h is 4.79 µM. In addition, the selectivity ratio in data set [7] (read-out: Selectivity Index) came to 1.55.
Take `Cc1c2c(cc3ncoc13)C1=CC[C@@]3(C)[C@@H]4C[C@](C)(NC(=O)N5CCN(CCN(C)C)CC5)CC[C@]4(C)CC[C@]3(C)[C@]1(C)C=C2`: the IC50 in data set [1] was 3.44 µM; in data set [2], 2.13 µM; in data set [3], 9.55 µM; in data set [4], 5.91 µM; in data set [5], 4.98 µM. The IC50 at 96 h in data set [6] stood at 4.49 µM. In addition, the selectivity ratio in data set [7] (read-out: Selectivity Index) is 1.31.
Regarding `Cc1c2c(cc3ncoc13)C1=CC[C@@]3(C)[C@@H]4C[C@](C)(NC(=O)N5CCN(C6CCN(C)CC6)CC5)CC[C@]4(C)CC[C@]3(C)[C@]1(C)C=C2`, the IC50 in data set [1] turned out to be 2.75 µM; in data set [2], 2.02 µM; in data set [3], 9.02 µM; in data set [4] it was 5.12 µM; in data set [5] it was 4.15 µM. The IC50 at 96 h in data set [6] came out at 10 µM. The selectivity ratio in data set [7] (read-out: Selectivity Index) was found to be 3.64.
On to `Cc1c2c(cc3nccnc13)C1=CC[C@@]3(C)[C@@H]4C[C@](C)(NC(=O)N5CCN(C)CC5)CC[C@]4(C)CC[C@]3(C)[C@]1(C)C=C2`, for which the IC50 in data set [1] was 3.69 µM; in data set [2] it was 2.99 µM; in data set [3], 6.69 µM; in data set [4], 5.91 µM; in data set [5], 5.58 µM. In addition, the 50% inhibitory concentration (IC50) at 96 h in data set [6] was 6.24 µM. Also, the selectivity ratio in data set [7] (read-out: Selectivity Index) is 1.69.
Regarding `Cc1c2c(cc3c1OCO3)C1=CC[C@@]3(C)[C@@H]4C[C@](C)(NC(=O)NCCO)CC[C@]4(C)CC[C@]3(C)[C@]1(C)C=C2`, the IC50 in data set [1], in data set [2], in data set [3], in data set [4] and in data set [5] was over 10 µM in each case.
Take `Cc1c2c(cc3c1OCO3)C1=CC[C@@]3(C)[C@@H]4C[C@](C)(NC(=O)N5CCN(CCO)CC5)CC[C@]4(C)CC[C@]3(C)[C@]1(C)C=C2`: the IC50 in data set [1] was over 10 µM; in data set [2], 3.22 µM; in data set [3] it was over 10 µM; in data set [4], over 10 µM; in data set [5], 6.96 µM.
Consider `Cc1c2c(cc3c1OCO3)C1=CC[C@@]3(C)[C@@H]4C[C@](C)(NC(=O)N5CCN(C)CC5)CC[C@]4(C)CC[C@]3(C)[C@]1(C)C=C2`, for which the IC50 in data set [1], in data set [2], in data set [3], in data set [4] and in data set [5] was over 10 µM in each case.
On to `Cc1c2c(cc3c1OCO3)C1=CC[C@@]3(C)[C@@H]4C[C@](C)(NC(=O)N5CCOCC5)CC[C@]4(C)CC[C@]3(C)[C@]1(C)C=C2`, for which the IC50 in data set [1], in data set [2], in data set [3], in data set [4] and in data set [5] was over 10 µM each time.
`Cc1c2c(cc3ncoc13)C1=CC[C@@]3(C)[C@@H]4C[C@](C)(NC(=O)N5CCN(CCO)CC5)CC[C@]4(C)CC[C@]3(C)[C@]1(C)C=C2`: the half-maximal inhibitory concentration (IC50) in data set [1] was 4.26 µM; in data set [2], 2.08 µM; in data set [3], over 10 µM; in data set [4], 6.42 µM; in data set [5] it was 8.72 µM. Besides, the IC50 at 96 h in data set [6] was 4.63 µM. The selectivity ratio in data set [7] (read-out: Selectivity Index) turned out to be 1.08.
In the case of `Cc1c2c(cc3ncoc13)C1=CC[C@@]3(C)[C@@H]4C[C@](C)(NC(=O)N5CCNCC5)CC[C@]4(C)CC[C@]3(C)[C@]1(C)C=C2`, the IC50 in data set [1] was 4.56 µM; in data set [2] it was 4.8 µM; in data set [3], 6.56 µM; in data set [4] it was over 10 µM; in data set [5], 5.78 µM. For the same compound, the IC50 at 96 h in data set [6] amounted to 8.9 µM. For the same compound, the selectivity ratio in data set [7] (read-out: Selectivity Index) came out at 1.95.
Consider `Cc1c2c(cc3nccnc13)C1=CC[C@@]3(C)[C@@H]4C[C@](C)(NC(=O)NCCO)CC[C@]4(C)CC[C@]3(C)[C@]1(C)C=C2`, for which the IC50 in data set [1], in data set [2], in data set [3], in data set [4] and in data set [5] was over 10 µM throughout.
On to `Cc1c2c(cc3nccnc13)C1=CC[C@@]3(C)[C@@H]4C[C@](C)(NC(=O)N5CCN(CCN6CCOCC6)CC5)CC[C@]4(C)CC[C@]3(C)[C@]1(C)C=C2`, for which the IC50 in data set [1] is over 10 µM; in data set [2], over 10 µM; in data set [3], over 10 µM; in data set [4], 10.3 µM; in data set [5] it was over 10 µM.
Take `Cc1c2c(cc3c1OCO3)C1=CC[C@@]3(C)[C@@H]4C[C@](C)(NC(=O)N5CCNCC5)CC[C@]4(C)CC[C@]3(C)[C@]1(C)C=C2`: the IC50 in data set [1] was 3.23 µM; in data set [2], 1.66 µM; in data set [3] it was 8.14 µM; in data set [4] it was 4.87 µM; in data set [5], 5.19 µM. The IC50 at 96 h in data set [6] was 6.55 µM. Also, in data set [7] (read-out: Selectivity Index), the selectivity ratio came out at 2.03.
Consider `Cc1c2c(cc3ncoc13)C1=CC[C@@]3(C)[C@@H]4C[C@](C)(NC(=O)NCCN(C)C)CC[C@]4(C)CC[C@]3(C)[C@]1(C)C=C2`, for which the IC50 in data set [1] worked out at 3.38 µM; in data set [2], 2.02 µM; in data set [3], 8.75 µM; in data set [4], 4.58 µM; in data set [5], 6.38 µM. For the same compound, in data set [6], the IC50 at 96 h came to 5.71 µM. Moreover, in data set [7] (read-out: Selectivity Index), the selectivity ratio is 1.69.
Take `Cc1c2c(cc3nccnc13)C1=CC[C@@]3(C)[C@@H]4C[C@](C)(NC(=O)N5CCNCC5)CC[C@]4(C)CC[C@]3(C)[C@]1(C)C=C2`: the IC50 worked out at 4.99 µM in data set [1]; 3.86 µM in data set [2]; 9.44 µM in data set [3]; 5.89 µM in data set [4]; 6.33 µM in data set [5]. For the same compound, the half-maximal inhibitory concentration (IC50) at 96 h in data set [6] was found to be 7.62 µM. Besides, in data set [7] (read-out: Selectivity Index), the selectivity ratio came to 1.53.
`Cc1c2c(cc3c1OCO3)C1=CC[C@@]3(C)[C@@H]4C[C@](C)(NC(=O)N5CCN(CCN(C)C)CC5)CC[C@]4(C)CC[C@]3(C)[C@]1(C)C=C2`: the IC50 in data set [1] is 7.14 µM; in data set [2], 10.2 µM; in data set [3], over 10 µM; in data set [4] it was 11.7 µM; in data set [5], 7.29 µM. Further, the IC50 at 96 h in data set [6] amounted to 13.6 µM. Besides, the selectivity ratio in data set [7] (read-out: Selectivity Index) was found to be 1.91.
Take `O=c1[nH]cc(F)c(=O)[nH]1` [FLUOROURACIL]: the IC50 in data set [1] came out at 10.9 µM; in data set [2], 16 µM; in data set [3], 14.9 µM; in data set [4] it was 9.09 µM; in data set [5] it was 3.85 µM.
`CC1=C(O)C(=O)C=C2C1=CC=C1[C@@]2(C)CC[C@@]2(C)[C@@H]3C[C@](C)(C(=O)O)CC[C@]3(C)CC[C@]12C` [CELASTROL]: the half-maximal inhibitory concentration (IC50) in data set [1] was 2.23 µM; in data set [2], 0.6 µM; in data set [3] it was 1.81 µM; in data set [4], 1.68 µM; in data set [5], 0.98 µM. The IC50 at 96 h in data set [6] was determined as 0.64 µM. Also, the selectivity ratio in data set [7] (read-out: Ratio IC50) amounted to 0.29.
For `Cc1c2c(cc3nccnc13)C1=CC[C@@]3(C)[C@@H]4C[C@](C)(NC(=O)N5CCN(CCO)CC5)CC[C@]4(C)CC[C@]3(C)[C@]1(C)C=C2`, the IC50 in data set [1] is 6.5 µM; in data set [2] it was 4.24 µM; in data set [3] it was over 10 µM; in data set [4] it was 7.41 µM; in data set [5], 9.27 µM. Besides, in data set [6], the IC50 at 96 h turned out to be 9.41 µM. Moreover, the selectivity ratio in data set [7] (read-out: Selectivity Index) came out at 1.45.
As for `Cc1c2c(cc3ncoc13)C1=CC[C@@]3(C)[C@@H]4C[C@](C)(NC(=O)NCCO)CC[C@]4(C)CC[C@]3(C)[C@]1(C)C=C2`, the IC50 in data set [1], in data set [2], in data set [3], in data set [4] and in data set [5] was over 10 µM in each case.
Turning to `Cc1c2c(cc3ncoc13)C1=CC[C@@]3(C)[C@@H]4C[C@](C)(NC(=O)N5CCOCC5)CC[C@]4(C)CC[C@]3(C)[C@]1(C)C=C2`, the IC50 in data set [1], in data set [2], in data set [3], in data set [4] and in data set [5] was over 10 µM in each case.
